This passage reports IC50 results from ChEMBL document CHEMBL1143548, “Synthesis and evaluation of potential inhibitors of eIF4E cap binding to 7-methyl GTP” (Bioorg Med Chem Lett, 2005).

Each structure is given as a SMILES string. pIC50: −log10 of the molar value.

The test deals with Eukaryotic translation initiation factor 4E (Homo sapiens, UniProt P06730). Kind of test: Inhibitory concentration against 7-methyl-GTP binding to eukaryotic translation initiation factor 4E.
Sequence of Eukaryotic translation initiation factor 4E (P06730 whole entry): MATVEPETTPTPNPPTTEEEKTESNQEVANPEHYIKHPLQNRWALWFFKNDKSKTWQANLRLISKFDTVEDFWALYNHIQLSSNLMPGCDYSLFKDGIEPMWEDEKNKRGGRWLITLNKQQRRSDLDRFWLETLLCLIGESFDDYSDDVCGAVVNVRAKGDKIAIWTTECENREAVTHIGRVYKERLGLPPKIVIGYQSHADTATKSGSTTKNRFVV

By pIC50 is commonly meant the negative decadic logarithm of the IC50, by convention in mol/L. Read a high pIC50 as a small IC50. Consider `C[n+]1cn([C@@H]2O[C@H](CO)[C@@H](O)[C@H]2O)c2nc(N)nc([S-])c21`, for which the pIC50 was less than 3.40.

The molecule `Cn1cnc2c(c1=O)[n+](C)cn2[C@@H]1O[C@H](CO)[C@@H](O)[C@H]1O` showed a pIC50 of less than 3.40.

`Nc1nc2c(c(=O)[nH]1)[n+](Cc1ccccc1)cn2[C@@H]1O[C@H](CO[PH](=O)[O-])[C@@H](O)[C@H]1O` showed a pIC50 of 3.70.

For the molecule `C[n+]1cn([C@H]2CC(O)[C@@H](COP(=O)(O)OP(=O)([O-])OP(=O)(O)O)O2)c2nc(N)[nH]c(=O)c21` (single isomer, unassigned), the pIC50 was 5.40.

With `CNc1nc2c(ncn2[C@@H]2O[C@H](CO)C(O)[C@H]2O)c(=O)[nH]1` (single isomer, unassigned), the pIC50 is less than 3.40.

In the case of `C=CC[n+]1cn([C@@H]2O[C@H](COP(=O)([O-])O)C(O)[C@H]2O)c2nc(N)[nH]c(=O)c21` (single isomer, unassigned), the pIC50 was 3.66.

The molecule `CN(C)c1nc2c(ccn2[C@@H]2O[C@H](CO)C(O)[C@H]2O)c(=O)[nH]1` (single isomer, unassigned) showed a pIC50 of less than 3.40.

The molecule `C[n+]1cn([C@@H]2O[C@H](CO)C(O)[C@H]2O)c2nc(N)[nH]c(=O)c21` (single isomer, unassigned) gave a pIC50 of less than 3.40.

Turning to `CC[n+]1cn([C@@H]2O[C@H](COP(=O)([O-])O)C(O)[C@H]2O)c2nc(N)[nH]c(=O)c21` (single isomer, unassigned), the pIC50 was 4.00.

For the molecule `Cc1ccc(SNc2nc3c(ncn3[C@@H]3O[C@H](CO)C(O)[C@H]3O)c(=O)[nH]2)cc1` (single isomer, unassigned), the pIC50 is less than 3.40.

`Nc1nc2c(ncn2[C@@H]2O[C@H](CO[PH](=O)O)C(O)[C@H]2O)c(=O)[nH]1` (single isomer, unassigned) showed a negative-log IC50 (pIC50) of 3.89.
